For assay [1], the system named is EL4-OVA-mPDL1 cells. The experiment in a line: EL4-OVA-mPDL1 subcutaneous transplanted tumor in Rag1−/− mice given CTL cells. Type of assay: in vivo, mouse. The settings on record: CTL cells by tail vein, MTC 40 mg/kg/day intragastric, PD-1 antibody 10 mg/kg/2 days intraperitoneal, vs CTL cell-only group, FIGS. 5B, C, D. On the procedure:
(1) Lymphoma cells overexpressing chicken ovalbumin OVA and mouse PD-L1, namely EL4-OVA-mPDL1 cells, were resuspended in BD Matrigel, in which, for one side of one mouse, 2×10^6 cells were resuspended in 100 μl BD Matrigel.
(2) The mixture of cells and Matrigel was inoculated into the left and right flanks of Rag1−/− mice subcutaneously, each at a dosage of 100 μl.
(3) When the tumor was fixed about 5 days after inoculation, activated OT-1 T cells (i.e., 2×10^6 CTL cells/mouse) were injected through the tail vein, and the mice were divided into 3 groups, namely the CTL cell group, the CTL cell +10 mg/kg/2 days PD-1 antibody group, and the CTL cell +40 mg/kg/day MTC group.
(4) The length and width of the transplanted tumor of each group of mice were measured from the day of tail vein injection of CTL cells, and every other day, and the tumor volume was calculated as length×width^2/2 (FIG. 5A).

For assay [2], the system named is Jurkat-PD-1-NFAT-LUC cells. Put plainly: IL-2 secretion by Jurkat-PD-1-NFAT-LUC cells co-cultured with Raji-PD-L1 cells (ELISA). Type of assay: cell-based, human. The settings on record: Raji-PD-L1 : Jurkat-PD-1-NFAT-LUC 1:1, CD3/CD28 antibody coated plate, 6 hours; 1 μM MTC or 10 μg/mL PD1 antibody; FIG. 1D. On the procedure:
(§1) (1) Jurkat cells were used to construct a stable cell line expressing PD-1. The pCAGin-PD-1 plasmid was electroporated into Jurkat cells, which were then screened with 900 μg/mL G418 antibiotic and flow-sorted for single clones. Jurkat-PD-1 cells were then electroporated into a DNA fragment that controls the luciferase gene through the NFAT-binding site (referred to as NFAT-LUC). A single clone was then flow-sorted and named clone 5. Using this cell, the expression level of IL-2 can be measured by the activity of luciferase. Raji cells stably expressing PD-L1 were constructed, and the pCDNA-PD-L1 plasmid was electroporated into the Raji cells, followed by screening with 2 μg/mL puromycin, and then flow-sorted single clones and named clone 1.
(3) A 96-well plate was coated with 10 μg/mL CD3 antibody/10 μg/mL CD28 antibody overnight at 4° C. and excess antibody was washed off with PBS. Raji cells or Raji-PD-L1 cells were co-cultured with Jurkat-PD-1-NFAT-LUC cells at a ratio of 1:1, or to a mixture of Raji-PD-L1 cells and Jurkat-PD-1-NFAT-LUC cells at a ratio of 1:1 was added 1 μM MTC or 10 μg/mL PD1 antibody for co-culture; after 6 hours of co-culture, the secretion of IL-2 in the supernatant was measured by ELISA.

For assay [3], the system named is Jurkat-PD-1-NFAT-LUC cells. The experiment in a line: NFAT-luciferase activity in Jurkat-PD-1-NFAT-LUC cells co-cultured with Raji-PD-L1 cells. The settings on record: 4.86 μM MTC or LMT added with Raji-PD-L1 cells, 6 h co-culture; FIG. 1E. The class given is cell-based, human. On the procedure:
as §1
(4) A 96-well plate was coated with 10 μg/mL CD3 antibody/10 μg/mL CD28 antibody overnight at 4° C., and excess antibody then washed off with PBS. Raji cells or Raji-PD-L1 cells were co-cultured with Jurkat-PD-1-NFAT-LUC cells at a ratio of 1:1, or to a mixture of Raji-PD-L1 cells and Jurkat-PD-1-NFAT-LUC cells at a ratio of 1:1 was added 4.86 μM MTC or LMT. Luciferase substrate was added after 6h co-culture and the luciferase activity was measured by a microplate reader.

The test system of assay [4] is B16-WT cells. The experiment in a line: Killing of B16-WT melanoma cells, with or without CTL cells. The class given is cell-based, mouse. The following applies: FIG. 4E. As for the experimental part: (§2) (4) The B16-OVA group received no treatment, and the medium was replaced with water in the Water group. The other groups were treated with 10 μg/mL IFNγ. After 24 hours, except for the B16-OVA group, each group was co-cultured with CTL cells at a ratio of 1:5 for 4 hours, and treated with MTC […], LMT (1 μM) or anti-PD1 (PD-1 antibody, 10 μg/mL, Nivolumab, BMS). The death of B16-OVA in each group was observed by microscope, and then the killing ability of CTL cells to target cells was assessed. […] The IFN-γ+MTC group and the IFN-γ+LMT group were treated with 10 μg/mL IFN-γ for 24 hours. The cells were then mixed with CTL cells at a ratio of 1:5, co-cultured for 4 hours and treated with MTC (1 μM) or LMT (1 μM). The MTC and LMT groups were treated with MTC (10 μM) or LMT (10 μM) only. The killing ability against target cells was observed.

Assay [5] deals with B16-OVA cells. The experiment in a line: CTL killing of IFN-γ-treated B16-OVA melanoma cells (microscope). Type of assay: cell-based, mouse. As for the experimental part:
(3) Melanoma cells B16-OVA (B16 cells expressing OVA gene) were treated with 10 μg/mL IFN-γ for 24 hours, and then mixed with CTL cells at a ratio of 1:5 and co-cultured for 4 hours. Cells were treated with 1 μM MTC. B16-OVA cells treated with DMSO or MTC only (without IFN-γ treatment) were used as control. The apoptosis of B16-OVA was observed by microscope, and then the killing ability of CTL cells to target cells was assessed.
as §2

“PD-1 antibody: anti-PD-1 antibody (Nivolumab, Bristol-Myers Squibb) used as comparator”: the “tumor growth (tumor volume and tumor weight)” value in assay [1] was “inhibited”. For the same compound, the “secretion of IL-2 in the supernatant” value in assay [2] is given as “sharply enhanced”.
Take `CN(C)c1ccc2c(c1)Sc1cc(N(C)C)ccc1N2` [LMT, N3,N3,N7,N7-tetramethyl-10H-phenothiazine-3,7-diammonium dimesylate]: the luciferase activity entry in assay [3] is given as “increased dramatically”. Further, in assay [4] (IFN-γ 10 μg/mL 24 hours, B16-WT : CTL 1:5, 4 hours, MTC (1 μM) or LMT (1 μM)), the “killing effect on B16-WT cells, combination with CTL cells” value was “no killing effect”. Besides, the “killing effect on B16-WT cells, compound only” value in assay [4] (MTC (10 μM) or LMT (10 μM) only) is given as “no killing effect”. Also, the “killing effects of CTL cells to B16-OVA cells” value in assay [5] (B16-OVA treated with 10 μg/mL IFNγ 24 hours, B16-OVA : CTL 1:5, 4 hours, MTC (1 µM), LMT (1 μM), FIGS. 4C and 4D) is “significantly enhanced”. Also, the “combined killing effect with CTL cells on B16-OVA compared with the anti-PD-1 group” value in assay [5] (MTC (1 µM) or LMT (1 μM) vs anti-PD1 10 μg/mL, FIG. 4D) was “significantly stronger than that of the anti-PD-1 group”.

These data come from US20220323454A1, “PHENOTHIAZINES AND THEIR DERIVATIVES FOR USE AS A MEDICAMENT” (Guangzhou Virotech Pharmaceutical Co., Ltd., priority 2019, published 2022).
